This note sets out measurements from patent US20080194574A1, “Pyrazine Derivatives As Effective Compounds Against Infectious Diseases” (AXXIMA PHARMACEUTICALS AG, priority 2003, published 2008).

Like-named read-outs stand apart in the source and are kept apart here.

The assay concerns the target T1, viral kinase pUL-97 (Human cytomegalovirus, UniProt P16788).
T1 construct: The pUL-97 gene was cloned into a baculovirus vector; GST (glutathione S-transferase) (N); made in house; host or cells: Sf9 insect cells, baculovirus
Description: UL97 kinase assay on Immobilon plate. Type of assay: biochemical. Particulars: inhibition of UL 97 kinase activity, read-out: Activity Class [A, B, C]. In short, it runs like this: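 Compound was titrated into a radiometric reaction of Sf9-expressed GST-UL97 kinase, incubated 1 h at 30 °C in Tris-HCl pH 7.5/MnCl2/DTT buffer before EDTA stop. MBP substrate and ATP (3 μM in the added assay buffer) were supplied with γ-[33P]ATP. Labelled product bound to Immobilon filter was washed and counted by scintillation.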

Where [1] appears, read: class by IC50 / % inhibition at 10 or 100 μM.
[2] abbreviates: class by IC50 / % inhibition at 10 μM or 100 μM.

T1 sequence (P16788 whole entry): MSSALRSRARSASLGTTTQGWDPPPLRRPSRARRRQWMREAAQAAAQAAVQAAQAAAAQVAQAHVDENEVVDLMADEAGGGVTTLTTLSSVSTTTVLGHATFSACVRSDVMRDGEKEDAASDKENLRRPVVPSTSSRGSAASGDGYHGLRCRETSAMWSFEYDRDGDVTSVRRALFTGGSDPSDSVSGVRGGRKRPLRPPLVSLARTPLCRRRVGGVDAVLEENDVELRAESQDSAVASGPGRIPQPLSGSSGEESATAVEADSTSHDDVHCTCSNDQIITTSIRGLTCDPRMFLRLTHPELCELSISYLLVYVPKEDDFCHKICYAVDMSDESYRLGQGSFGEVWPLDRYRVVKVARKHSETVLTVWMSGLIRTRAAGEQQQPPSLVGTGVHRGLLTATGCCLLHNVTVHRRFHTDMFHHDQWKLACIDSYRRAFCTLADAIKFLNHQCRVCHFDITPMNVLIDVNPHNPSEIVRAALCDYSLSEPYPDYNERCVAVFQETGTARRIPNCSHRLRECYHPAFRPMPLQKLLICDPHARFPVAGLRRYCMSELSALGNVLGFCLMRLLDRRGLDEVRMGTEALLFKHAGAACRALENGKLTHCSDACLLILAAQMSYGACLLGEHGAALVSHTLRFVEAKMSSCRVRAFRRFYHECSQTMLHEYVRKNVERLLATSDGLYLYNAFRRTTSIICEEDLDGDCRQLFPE

On to `Clc1ccc(-c2cncc(N3CCN(c4ccncc4)CC3)n2)cc1` [compound 47, 6′-(4-Chloro-phenyl)-4-pyridin-4-yl-3,4,5,6-tetrahydro-2H-[1,2′]bipyrazinyl], for which the IC50 under setting [1] lay within 1 to 10 µM.
In the case of `CSc1ccc(-c2cncc(N3CCN(c4ccc(F)cc4F)CC3)n2)cc1` [compound 274, 4-(2,4-Difluoro-phenyl)-6′-(4-methylsulfanyl-phenyl)-3,4,5,6-tetrahydro-2H-[1,2′]bipyrazinyl], under setting [2], the IC50 is 1 to 10 µM.
Regarding `Clc1cccc(-c2cncc(N3CCN(c4ccccn4)CC3)n2)c1` [compound 53, 6′-(3-Chloro-phenyl)-4-pyridin-2-yl-3,4,5,6-tetrahydro-2H-[1,2′]bipyrazinyl], the IC50 under setting [1] lay in the range of 1 to 10 µM.
As for `COc1ccc(Cl)cc1-c1cncc(N2CCN(c3ccccc3OC)CC2)n1` [compound 91, 6′-(5-Chloro-2-methoxy-phenyl)-4-(2-methoxy-phenyl)-3,4,5,6-tetrahydro-2H-[1,2′]bipyrazinyl], the IC50 under setting [1] is 10 to 100 µM.
Consider `CC(=O)c1cccc(-c2cncc(N3CCN(c4cnccn4)CC3)n2)c1` [compound 312, 1-[3-(2′,3′,5′,6′-Tetrahydro-[2,1′;4′,2″]terpyrazin-6-yl)-phenyl]-ethanone], for which the IC50 under setting [2] fell in the range of 1 to 10 µM.
Take `O=C(NCCO)c1cccc(-c2cncc(N3CCN(c4ccncc4)CC3)n2)c1` [compound 39, N-(2-Hydroxy-ethyl)-3-(4-pyridin-4-yl-3,4,5,6-tetrahydro-2H-[1,2′]bipyrazinyl-6′-yl)-benzamide]: the IC50 under setting [1] lay in the range of 10 to 100 µM.
On the same count and under the same terms, the result for `N#Cc1cccc(-c2cncc(N3CCN(c4ccncc4)CC3)n2)c1` [compound 167, 3-(4-Pyridin-4-yl-3,4,5,6-tetrahydro-2H-[1,2′]bipyrazinyl-6′-yl)-benzonitrile] reads 1 to 10 µM.
As for `COc1cccc(N2CCN(c3cncc(-c4cccc(C(C)=O)c4)n3)CC2)c1` [compound 368, 1-{3-[4-(3-Methoxy-phenyl)-3,4,5,6-tetrahydro-2H-[1,2′]bipyrazinyl-6′-yl]-phenyl}-ethanone], the IC50 under setting [2] was in the range of 1 to 10 µM.
Regarding `Cc1cccc(N2CCN(c3cncc(-c4csc5ccccc45)n3)CC2C)c1` (centres unmarked) [compound 279, 6′-Benzo[b]thiophen-3-yl-3-methyl-4-m-tolyl-3,4,5,6-tetrahydro-2H-[1,2′]bipyrazinyl], the IC50 under setting [2] lay within 10 to 100 µM.
Take `CSc1ccc(-c2cncc(N3CCN(c4cccc(Cl)c4)CC3)n2)cc1` [compound 102, 4-(3-Chloro-phenyl)-6′-(4-methylsulfanyl-phenyl)-3,4,5,6-tetrahydro-2H-[1,2′]bipyrazinyl]: the IC50 under setting [1] was in the range of 1 to 10 µM.
`COc1ccc(-c2cncc(N3CCN(c4ccc(F)cc4)CC3)n2)cc1OC` [compound 139, 6′-(3,4-Dimethoxy-phenyl)-4-(4-fluoro-phenyl)-3,4,5,6-tetrahydro-2H-[1,2′]bipyrazinyl]: the IC50 under setting [1] was in the range of 1 to 10 µM.
As for `COc1ccc(N2CCN(c3cncc(-c4ccc(C(N)=O)cc4)n3)CC2)cc1` [compound 290, 4-[4-(4-Methoxy-phenyl)-3,4,5,6-tetrahydro-2H-[1,2′]bipyrazinyl-6′-yl]-benzamide], the IC50 under setting [2] is below 1 µM.
Take `Cc1cccc(N2CCN(c3cncc(-c4ccc(C(N)=O)cc4)n3)CC2C)c1` (centres unmarked) [compound 299, 4-(3-Methyl-4-m-tolyl-3,4,5,6-tetrahydro-2H-[1,2′]bipyrazinyl-6′-yl)-benzamide]: the IC50 under setting [2] lay in the range of 1 to 10 µM.
On the same count and under the same terms, for `OCc1ccc(-c2cncc(N3CCN(c4ccc(F)cc4)CC3)n2)cc1` [compound 269, {4-[4-(4-Fluoro-phenyl)-3,4,5,6-tetrahydro-2H-[1,2′]bipyrazinyl-6′-yl]-phenyl}-methanol] the value was 1 to 10 µM; for `N#Cc1ccc(-c2cncc(N3CCN(c4ccccn4)CC3)n2)cc1` [compound 303, 4-(4-Pyridin-2-yl-3,4,5,6-tetrahydro-2H-[1,2′]bipyrazinyl-6′-yl)-benzonitrile], 1 to 10 µM; for `Fc1ccc(-c2cncc(N3CCN(c4ccc(C(F)(F)F)cc4)CC3)n2)cc1` [compound 309, 6′-(4-Fluoro-phenyl)-4-(4-trifluoromethyl-phenyl)-3,4,5,6-tetrahydro-2H-[1,2′]bipyrazinyl], 10 to 100 µM.
As for `OCc1cccc(-c2cncc(N3CCN(c4ccncc4)CC3)n2)c1` [compound 52, [3-(4-Pyridin-4-yl-3,4,5,6-tetrahydro-2H-[1,2′]bipyrazinyl-6′-yl)-phenyl]-methanol], the IC50 under setting [1] fell in the range of 10 to 100 µM.
Same read-out and setting: the result for `CCOc1ccc(-c2cncc(N3CCN(c4cccc(Cl)c4)CC3)n2)cc1` [compound 129, 4-(3-Chloro-phenyl)-6′-(4-ethoxy-phenyl)-3,4,5,6-tetrahydro-2H-[1,2′]bipyrazinyl] reads 1 to 10 µM.
As for `c1cncc(-c2cncc(N3CCN(c4cccc5[nH]ccc45)CC3)n2)c1` [compound 64, 4-(1H-Indol-4-yl)-6′-pyridin-3-yl-3,4,5,6-tetrahydro-2H-[1,2′]bipyrazinyl], the IC50 under setting [1] was 1 to 10 µM.
Consider `c1ccc2sc(-c3cncc(N4CCN(c5ccncc5)CC4)n3)cc2c1` [compound 69, 6′-Benzo[b]thiophen-2-yl-4-pyridin-4-yl-3,4,5,6-tetrahydro-2H-[1,2′]bipyrazinyl], for which the IC50 under setting [1] is below 1 µM.
For the compound `c1ccc2c(-c3cncc(N4CCN(c5cnccn5)CC4)n3)csc2c1` [compound 332, 6-Benzo[b]thiophen-3-yl-2′,3′,5′,6′-tetrahydro-[2,1′;4′,2″]terpyrazine], the IC50 under setting [2] is below 1 µM.
As for `COc1ccc(N2CCN(c3cncc(-c4cccc(C)c4C)n3)CC2)cc1OC` [compound 226, 4-(3,4-Dimethoxy-phenyl)-6′-(2,3-dimethyl-phenyl)-3,4,5,6-tetrahydro-2H-[1,2′]bipyrazinyl], the IC50 under setting [2] was 10 to 100 µM.
Turning to `OCc1ccc(-c2cncc(N3CCN(c4ccc(Cl)c(Cl)c4)CC3)n2)cc1` [compound 315, {4-[4-(3,4-Dichloro-phenyl)-3,4,5,6-tetrahydro-2H-[1,2′]bipyrazinyl-6′-yl]-phenyl}-methanol], the IC50 under setting [2] lay within 1 to 10 µM.
Take `FC(F)(F)c1ccc(-c2cncc(N3CCN(c4cccc(Cl)c4)CC3)n2)cc1` [compound 184, 4-(3-Chloro-phenyl)-6′-(4-trifluoromethyl-phenyl)-3,4,5,6-tetrahydro-2H-[1,2′]bipyrazinyl]: the IC50 under setting [1] lay within 10 to 100 µM.
As for `Fc1ccc(N2CCN(c3cncc(-c4ccc5ccccc5c4)n3)CC2)c(F)c1` [compound 199, 4-(2,4-Difluoro-phenyl)-6′-naphthalen-2-yl-3,4,5,6-tetrahydro-2H-[1,2′]bipyrazinyl], the IC50 under setting [2] lay within 1 to 10 µM.
On to `CN(C)c1ccc(-c2cncc(N3CCN(c4ccccc4F)CC3)n2)cc1` [compound 195, {4-[4-(2-Fluoro-phenyl)-3,4,5,6-tetrahydro-2H-[1,2′]bipyrazinyl-6′-yl]-phenyl}-dimethyl-amine], for which, under setting [1], the IC50 is 1 to 10 µM.
The same measure, in the same setting: the result for “6′-Benzo[b]thiophen-2-yl-4-pyridin-4-yl-3,4,5,6-tetrahydro-2H-[1,2′]bipyrazinyl [compound 69]” reads below 1 µM.
Take `COc1ccccc1N1CCN(c2cncc(-c3ccc(C)cc3)n2)CC1` [compound 241, 4-(2-Methoxy-phenyl)-6′-p-tolyl-3,4,5,6-tetrahydro-2H-[1,2′]bipyrazinyl]: the IC50 under setting [2] is 10 to 100 µM.
Regarding `CSc1ccc(-c2cncc(N3CCN(c4ccccc4F)CC3)n2)cc1` [compound 116, 4-(2-Fluoro-phenyl)-6′-(4-methylsulfanyl-phenyl)-3,4,5,6-tetrahydro-2H-[1,2′]bipyrazinyl], the IC50 under setting [1] was in the range of 1 to 10 µM.
Same read-out and setting: for `Fc1ccc(N2CCN(c3cncc(-c4cccc(F)c4)n3)CC2)cc1` [compound 181, 4-(4-Fluoro-phenyl)-6′-(3-fluoro-phenyl)-3,4,5,6-tetrahydro-2H-[1,2′]bipyrazinyl] the value was 10 to 100 µM; for `CSc1ccc(-c2cncc(N3CCN(c4ccc(C(C)=O)cc4)CC3)n2)cc1` [compound 159], below 1 µM.
Consider `COc1ccc(N2CCN(c3cncc(-c4ccc(F)cc4)n3)CC2)cc1` [compound 363, 6′-(4-Fluoro-phenyl)-4-(4-methoxy-phenyl)-3,4,5,6-tetrahydro-2H-[1,2′]bipyrazinyl], for which, under setting [2], the IC50 lay in the range of 1 to 10 µM.
With `COc1ccc(-c2cncc(N3CCN(c4ccccn4)CC3)n2)cc1OC` [compound 306, 6′-(3,4-Dimethoxy-phenyl)-4-pyridin-2-yl-3,4,5,6-tetrahydro-2H-[1,2′]bipyrazinyl], the IC50 under setting [2] lay within 1 to 10 µM.
`CSc1ccc(-c2cnc(N)c(N3CCN(c4ccncc4)CC3)n2)cc1` [compound 75, 6′-(4-Methylsulfanyl-phenyl)-4-pyridin-4-yl-3,4,5,6-tetrahydro-2H-[1,2′]bipyrazinyl-3′-ylamine]: the IC50 under setting [1] was below 1 µM.
With `COc1cccc(N2CCN(c3cncc(-c4ccc(SC)cc4)n3)CC2)c1` [compound 369, 4-(3-Methoxy-phenyl)-6′-(4-methylsulfanyl-phenyl)-3,4,5,6-tetrahydro-2H-[1,2′]bipyrazinyl], the IC50 under setting [2] was 1 to 10 µM.
Consider `Fc1ccc(N2CCN(c3cncc(-c4ccoc4)n3)CC2)c(F)c1` [compound 201, 4-(2,4-Difluoro-phenyl)-6′-furan-3-yl-3,4,5,6-tetrahydro-2H-[1,2′]bipyrazinyl], for which the IC50 under setting [2] was in the range of 1 to 10 µM.
As for `CC(=O)Nc1cccc(-c2cncc(N3CCN(c4cccc5[nH]ccc45)CC3)n2)c1` [compound 36, N-{3-[4-(1H-Indol-4-yl)-3,4,5,6-tetrahydro-2H-[1,2′]bipyrazinyl-6′-yl]-phenyl}-acetamide], under setting [1], the IC50 is 10 to 100 µM.
Still for that read-out and setting: the result for `c1ccc(N2CCN(c3cncc(-c4cccs4)n3)CC2)nc1` [compound 31, 4-Pyridin-2-yl-6′-thiophen-2-yl-3,4,5,6-tetrahydro-2H-[1,2′]bipyrazinyl] reads 10 to 100 µM.
